From patent US4072751A, “Pesticidal N-substituted bis-carbamoyl sulfide compounds” (priority 1976, dated 1978)

Columns and labels:
[1] = Mammalian Toxicity Test (peroral toxicity); conditions: in vivo, po, rat, read-out: A. O. Rat (LD50)
Experimental: Certain of these compositions were also evaluated to determine their peroral toxicity to mammals. The animal selected for this experiment was the rat. The test results obtained are expressed in terms of the number of milligrams of compositions per kilogram of weight of the animal required to achieve a morality rate of 50 percent (LD50).

[2] = test system: Mexican bean beetle (Epilachna varivestis, Muls.); assay: Mexican Bean Beetle Leaf Spray Test; type: in vivo; parameters: key: A: excellent control; B: partial control; C: no control; conditions: fourth instar larvae; 500 parts of test compound per million parts of final formulation; 3 days
Experimental: (§1) Suspensions of the test compounds were prepared by dissolving one gram of compound in 50 milliliters of acetone in which had been dissolved 0.1 gram (10 percent of the weight of compound) of an alkylphenoxy polyethoxyethanol surfactant, as an emulsifying or dispersing agent. The resulting solution was mixed into 150 milliliters of water to give roughly 200 milliliters of a suspension containing the compound in finely divided form. The thus-prepared stock suspension contained 0.5 percent by weight of test compound. The test concentrations in parts per million by weight employed in the tests described hereinbelow were obtained by appropriate dilutions of the stock suspension with water. The test procedures were as follows:
Fourth instar larvae of the Mexican bean beetle (Epilachna varivestis, Muls.) reared on Tendergreen bean plants at a temperature of 80±5° and 50±5 percent relative humidity, were the test insects.
The test compounds were formulated by diluting the stock suspension with water to give a suspension containing 500 parts of test compound per million parts of final formulation. Potted Tendergreen bean plants of standard height and age were placed on a revolving turntable and sprayed with 100-110 milliliters of test compound formulation by use of a DeVilbiss spray gun set at 10 psig air pressure. This application, which lasted 25 seconds was sufficient to wet plants to run-off. As a control, 100-110 milliliters of a water-acetone-emulsifier solution containing no test compound were also sprayed on infested plants. When dry, the paired leaves were separated and each was placed in a 9 centimeter Petri dish lined with moistened filter paper. Five randomly selected larvae were introduced into each dish, and the dishes were closed. The closed dishes were labeled and held at a temperature of 80±5° F. for 3 days. Although the larvae could easily consume the leaf within 24 to 48 hours, no more food was added. Larvae which were unable to move the length of the body, even upon stimulation, were considered dead.
(§2) In these tests the pesticidal activity of the compounds against aphid, mite, Southern Armyworm, Mexican Bean Beetle, and house fly was rated as follows: […]

[3] = test system: southern armyworm (Prodenia Eridania, (Cram.)); assay: Southern Armyworm Leaf Spray Test; type: in vivo; parameters: key: A: excellent control; B: partial control; C: no control; conditions: larvae; 500 parts of test compound per million parts of final formulation; 3 days
Experimental: as §1
Larvae of the southern armyworm (Prodenia Eridania, (Cram.), reared on Tendergreen bean plants at a temperature of 80±5° F. and relative humidity of 50±5 percent, constituted the test insects.
The test compounds were formulated by diluting the stock suspension with water to give a suspension containing 500 parts of test compound per million parts of final formulation. Potted Tendergreen bean plants of standard height and age were placed on a revolving turntable and sprayed with 100-110 milliliters of test compound formulation by use of a DeVilbiss spray gun set at 10 psig. air pressure.
This application which lasted 25 seconds was sufficient to wet plants to run-off. As a control, 100-110 milliliters of a water-acetone-emulsifier solution containing no test compound were also sprayed on infested plants. When dry, the paired leaves were separated and each one was placed in a 9 centimeter Petri dish lined with moistened filter paper. Five randomly selected larvae were introduced into each dish and the dishes were closed. The closed dishes were labeled and held at 80°-85° F. for 3 days. Although the larvae could easily consume the whole leaf within 24 hours, no more food was added. Larvae which were unable to move the length of the body, even upon stimulation by prodding, were considered dead. Percent mortality was recorded for various concentration levels.
as §2

[4] = test system: two-spotted mite (Tetranychus urticae Koch); assay: Mite Foliage Spray Test; type: in vivo; parameters: key: A: excellent control; B: partial control; C: no control; conditions: 500 parts of test compound per million parts of final formulation; 6 days
Experimental: as §1
Adults and nymphal stages of the two-spotted mite (Tetranychus urticae Koch), reared on Tendergreen bean plants at 80±5 percent relative humidity, were the test organisms. Infested leaves from a stock culture were placed on the primary leaves of two bean plants 6 to 8 inches in height, growing in a 21/2 inch clay pot. 150-200 Mites, a sufficient number for testing, transferred from the excised leaves to the fresh plants in a period of 24 hours. Following the 24 hour transfer period, the excised leaves were removed from the infested plants. The test compounds were formulated by diluting the stock suspension with water to give a suspension with water to give a suspension containing 500 parts of test compound per million parts of final formulation. The potted plants (one pot per compound) were placed on a revolving turntable and sprayed with 100-110 milliliters of test compound formulation by use of a DeVilbiss spray gun set at 40 psig. air pressure. This application, which lasted for 25 seconds was sufficient to wet the plants to run-off. As a control, 100-110 milliliters of a water solution containing acetone and emulsifier in the same concnetrations as the test compound formulation, but containing no test compound, were also sprayed on infested plants. The sprayed plants were held at 80±5 percent relative humidity for 6 days, after which a mortality count of motile forms was made. Microscopic examination for motile forms was made on the leaves of the test plants. Any individual which was capable of locomotion upon prodding, was considered living.
as §2

[5] = test system: bean aphid (Aphis Fabae Scop.); assay: Bean Aphid Foliage Spray Test; type: in vivo; parameters: key: A: excellent control; B: partial control; C: no control; conditions: 500 parts of test compound per million parts of final formulation; 24 hour
Experimental: as §1
Adults and nymphal stages of the bean aphid (Aphis Fabae Scop.) reared on potted dwarf nasturtium plants at 65°-70° F and 50-70 percent relative humidity, constituted the test insects. For testing purposes, the number of aphids per pot was standardized to 100-150 by trimming plants containing excess aphids.
The test compounds were formulated by diluting the stock suspension with water to give a suspension containing 500 parts of test compound per million parts of final formulation.
The potted plants (one pot per compound tested) infested with 100-150 aphids, were placed on a revolving turntable and sprayed with 100-110 milliliters of test compound formulation by use of a DeVilbiss spray gun set at 40 psig. air pressure. This application, which lasted 25 seconds, was sufficient to wet the plants to run-off. As a control, 100-110 milliliters of a water-acetone-emulsifier solution containing no test compound were also sprayed on infested plants. After spraying, the pots were placed on their sides on a sheet of white standard mimeograph paper which had been previously ruled to facilitate counting. Temperature and humidity in the test room during the 24 hour holding period were 65°-70° F. and 50-70 percent, respectively. Aphids which fell onto the paper and were unable to remain standing after being uprighted were considered dead. Aphids remaining on the plants were observed closely for movement and those which were unable to move the length of the body upon stimulator by prodding were considered dead. Percent mortality was recorded for various concentration levels.
as §2

[6] = test system: house flies (Musca domestica, L.); assay: Fly Bait Test; type: in vivo; parameters: key: A: excellent control; B: partial control; C: no control; conditions: adults, 500 parts of test compound per million parts of final formulation, 24 hours
Experimental: as §1
Four to 6 day old adult house flies (Musca domestica, L.) reared according to the specifications of the Chemical Specialties Manufacturing Association (Blue Book, McNair-Dorland Co., NY., 1954; pages 243-244, 261) under controlled conditions of 80±5° F. and 50±5 percent relative hmidity, were the test insects. The flies were immobilized by anesthetizing with carbon dioxide and 25 immobilized individuals, males and females, were transferred to a cage consisting of a standard food strainer about 5 inches in diameter which was inverted over a wrapping-paper-covered surface. The test compounds were formulated by diluting the stock suspension with a 10 percent (by weight) sugar solution to give a suspension containing 500 parts of test compound per million parts of final formulation, by weight. Ten milliliters of the test formulation were added to a souffle cup containing a one inch square of an absorbent cotton pad. This bait cup was introduced and centered on the blotting paper under the food strainer prior to admitting the anesthetized flies. The caged flies were allowed to feed on the bait for 24 hours, at a temperature of 80±5° F. and the relative humidity of 50±5 percent.
as §2

| Structure (SMILES) | LD50 [1] | Mexican Bean Beetle [2] | Southern Armyworm [3] | Mite [4] | Aphid [5] | Housefly [6] |
| --- | --- | --- | --- | --- | --- | --- |
| CSC(C)=NOC(=O)N(C)SN(C)C(=O)ON=C(C)[S+](C)[O-] (stereo not shown) | 202 mg/kg | A | A | C | A | A |
| CC(=NOC(=O)N(C)SN(C)C(=O)ON=C(C)S(C)(=O)=O)S(C)(=O)=O |  | C | C | C | C | C |
| CSC(C)=NOC(=O)N(C)SN(C)C(=O)ON=C(C)S(C)(=O)=O | 285 mg/kg | A | A | A | A | A |
| CC(=NOC(=O)N(C)SN(C)C(=O)ON=C(C)[S+](C)[O-])[S+](C)[O-] (stereo not shown) |  | C | C | C | C | C |
